Assay results: patent publication US20220249525A1, “Fatty Acid Compounds for Prevention and Treatment of Neurodegenerative Disorders” (T OMEGA AS, priority 2019, published 2022)

Experiments:
SH-SY5Y cells = test: GC-MS analysis of TTA in cell medium and SH-SY5Y cells; type: in vitro ADME
Method: The GC-MS analysis was performed on treated SH-SY5Y cells and its medium prior and after treatment of TTA complexed with FBS. The technical work and analysis were performed by Pavol Bohov.
Total medium and cellular FA composition were analyzed by […] after preparation of FA methyl esters from total lipids by heating with a 1:1 mixture of methanol and toluene at 90° C. for 1 hour using sulfuric acid as a catalyst. Gas chromatograph Trace GC Ultra (Finnigan, USA) was equipped with a programmable temperature vaporization injector, flame-ionization detector, AS 2000 autosampler and with a fused silica capillary column coated with dimethylpolysiloxane stationary phase (J & W Scientific, USA). Hydrogen was used as a carrier gas. The column temperature was programmed from 110° C. to 310° C. with a gradient of 2.5° C./min.
The GC signal was acquired and evaluated with Chromeleon software version 6.80 (Dionex, USA). Peaks were identified by means of known FA standards and by means of mass spectra, obtained by GC-MS analysis (GCQ MS Detector, Finnigan, USA) on the same column.
The quantification of the FAs was based on the areas of the chromatographic peaks which were measured electronically. Subsequently, the areas were converted to weight units based on the known amount of the internal standard C21:0 which had been added to the sample. The response of the analytical procedure was determined with a mixture of pure standards (Sigma-Aldrich, USA; Supelco, USA; Larodan Fine Chemicals, Sweden).

HCC827 cells = test: Mitochondria respiration assay (OCR, extracellular flux) in HCC827 cells; type: cell-based; conditions: compared to control
Method: (§1) Non-small cell lung cancer cells, HCC827 (ATCC) were cultured in RPMI-1640 Glutamax medium (Sigma-Aldrich St. Louis, Mo., USA), under conventional culture conditions. Media was supplemented with 10% Fetal Bovine Serum (FBS), 1% glutamine and 1% streptomycin/penicillin (Sigma-Aldrich). HeLaNRF1/c4 reporter cells were cultured in Dulbecco's Modified Eagle's Medium (DMEM) supplemented with 10% FBS, 2 mM L-Glutamine, 100 u/ml penicillin/streptomycin (Sigma-Aldrich,). Incubation was done at 37° C. in 5% CO2.
Mitochondria function was analyzed by measuring oxygen consumption rate (OCR) by extracellular flux analysis in a Seahorse XFe96 instrument (Agilent Seahorse XF Technologies). The measurements were performed in DADA basic media without phenol red, supplemented with L-glutamine (2 mM), pyruvate (2 mM), and sodium chloride, NaCl (32 mM) (Sigma-Aldrich). Respiratory rates were measured following sequential additions of glucose (10 mM), oligomycin, carbonyl cyanide m-chlorophenyl hydrazine (CCCP) and a mixture of rotenone (1 μM) and antimycin A (1 μM). Before carrying out the measurements for each cell model, optimizations were done for; cell number, CCCP, and oligomycin concentrations. For the HCC 827 cell model optimal conditions were; 30,000 cells/well, 0.5 μM CCCP, and 3 μM Oligomycin; and in HeLaNRF1/c4 reporter cell model; 20,000 cells/well, 1 μM CCCP and 3 μM Oligomycin. The OCR measured initially (before any additions) represented the rate ‘basal respiration.’ The addition of ATP synthase inhibitor oligomycin provided oxygen consumption independent of ATP production (‘leak activity’). Maximal respiration (also referred to as ‘respiratory capacity’) was measured upon addition of the uncoupler CCCP. […] After the extracellular flux analysis the analysis plates were washed with Phosphate Buffered Saline (PBS) and frozen at −80° C. The BCA assay (Pierce BCA protein assay kit, Thermo Fisher Scientific, Waltham, Mass. USA) was employed to measure the protein content in the wells. To evaluate the effects of the different treatments, the respiratory rates from compound-treated wells were normalized to protein content, and calculated as percentage of the average respiratory rate of the DMSO-treated control wells. All treatments were performed with 6-8 replicate wells.

[1] = system: HeLaNRF1/c4 reporter cells; test: NRF1-regulated mitochondrial biogenesis, GFP reporter by flow cytometry; type: cell-based; conditions: 5 days; AICAR 250 μM or 500 μM, resveratrol 25 uM, test compounds 30 μM and 60 μM
Method: The HeLaNRF1/c4 reporter cells were employed to investigate effects of the modified fatty acids on NRF1-regulated mitochondrial biogenesis. The cells (250,000) were seeded in T75 flasks and incubated for 3 hours to allow attachment. The compounds were dissolved in DMSO and diluted in culture medium to provide the final concentration. DMSO at a concentration equivalent to the highest compound concentration was added to control cultures. Resveratrol and AICAR were used as positive controls. Resveratrol has not previously been tested in this reporter model, but we found it relevant to include it for purposes of experimental and mechanistic comparisons. After 3 days of treatment the media was replaced with fresh media containing the corresponding compound. On day 5, the cells were harvested and the cultures split into three fractions: One fraction was used for detection of mitoGFP expression by flow cytometry, to assess effects on NRF-1 regulated mitochondrial biogenesis. Flow cytometry analysis was performed as previously described. Another fraction was used for extraction of RNA and subsequent gene expression analysis using quantitative PCR (see below). The last fraction was employed to investigate effects on mitochondrial respiratory function by extracellular flux analysis (described above). The experiment was replicated three times. […]

[2] = system: HeLaNRF1/c4 reporter cells; test: Gene expression (qPCR) in HeLaNRF1/c4 reporter cells; type: cell-based; conditions: long-term treatment, vs control
Method: The HeLaNRF1/c4 reporter cells were employed to investigate effects of the modified fatty acids on NRF1-regulated mitochondrial biogenesis. The cells (250,000) were seeded in T75 flasks and incubated for 3 hours to allow attachment. The compounds were dissolved in DMSO and diluted in culture medium to provide the final concentration. DMSO at a concentration equivalent to the highest compound concentration was added to control cultures. Resveratrol and AICAR were used as positive controls. Resveratrol has not previously been tested in this reporter model, but we found it relevant to include it for purposes of experimental and mechanistic comparisons. After 3 days of treatment the media was replaced with fresh media containing the corresponding compound. On day 5, the cells were harvested and the cultures split into three fractions: One fraction was used for detection of mitoGFP expression by flow cytometry, to assess effects on NRF-1 regulated mitochondrial biogenesis. Flow cytometry analysis was performed as previously described. Another fraction was used for extraction of RNA and subsequent gene expression analysis using quantitative PCR (see below). The last fraction was employed to investigate effects on mitochondrial respiratory function by extracellular flux analysis (described above). The experiment was replicated three times.
Total RNA was extracted from harvested cells (RNAeasy kit Qiagen, Hilden, Germany). The RNA content was quantified on Nanodrop 1000 Spectrophotometer (Thermo Scientific). From 1 μg total RNA, cDNA was synthesized using High-Capacity Reverse Transcription Kit (Applied Biosystems, Carlsbad, Calif., US). Gene quantification was done using TaqMan probes for gene expression assays (Applied Biosystems). Probes used were: PGC1α (PPARG coactivator 1α), Hs00173304_m1; HIF1α (hypoxia inducible factor 1α), Hs00153153_m1; PDK1 (pyruvate dehydrogenase kinase 1), Hs01561847_m1; PDK4, (pyruvate dehydrogenase kinase 4), Hs01037712_m1; SIRT4 (sirtuin 4) Hs01015516_g1; ACOX1 (acyl-CoA oxidase 1) Hs01074241_m1; as reference genes, we used; Eukaryotic 18S rRNA Hs99999901_s1; actin beta Hs99999903_m1. Fold change was calculated as geometric mean of ΔΔCt of the two reference genes.

[3] = system: HeLaNRF1/c4 reporter cells; test: Resazurin conversion assay in HeLaNRF1/c4 reporter cells; type: cell-based; conditions: test compounds 30 μM and 60 μM, long treatment
Method: as §1
Cell viability/proliferation was determined by the resazurin conversion assay. A total of 4000 cells were seeded in each of the 96-well plates in 100 μl of medium. After 3 hours of incubation, 100 μl of fresh medium with respective concentration of the desired compound or controls were added. Resazurin solution (Sigma-Aldrich) was added (10%, v/v in PBS) after 1 or 3 day treatment, followed by 3 hour incubation at 37° C. and 5% CO2. Resazurin fluorescence (excitation, 540 nm; emission, 590 nm) was measured and measurements were corrected for background signals. […] Relative viability was calculated from percent fluorescence relative to DMSO-treated control wells.
In order to investigate if some of the compounds induce metabolic adaptations involving mitochondrial biogenesis, we employed the HeLaNRF1/c4 reporter cells in which activation of the transcription factor NRF1 triggers expression of GFP. Since adaptations of mitochondrial biogenesis are known to require some days to develop, we used a relatively low dosage (30 μM and 60 μM) of the compounds, to allow longer treatment period compared to the previous short term experiments.

[4] = system: HeLaNRF1/c4 reporter cells; test: Mitochondria respiration assay (OCR) in HeLaNRF1/c4 reporter cells after 5 days; type: cell-based
Method: Mitochondria function was analyzed by measuring oxygen consumption rate (OCR) by extracellular flux analysis in a Seahorse XFe96 instrument (Agilent Seahorse XF Technologies). The measurements were performed in DADA basic media without phenol red, supplemented with L-glutamine (2 mM), pyruvate (2 mM), and sodium chloride, NaCl (32 mM) (Sigma-Aldrich). Respiratory rates were measured following sequential additions of glucose (10 mM), oligomycin, carbonyl cyanide m-chlorophenyl hydrazine (CCCP) and a mixture of rotenone (1 μM) and antimycin A (1 μM). Before carrying out the measurements for each cell model, optimizations were done for; cell number, CCCP, and oligomycin concentrations. […] The OCR measured initially (before any additions) represented the rate ‘basal respiration.’ The addition of ATP synthase inhibitor oligomycin provided oxygen consumption independent of ATP production (‘leak activity’). Maximal respiration (also referred to as ‘respiratory capacity’) was measured upon addition of the uncoupler CCCP. […] To evaluate the effects of the different treatments, the respiratory rates from compound-treated wells were normalized to protein content, and calculated as percentage of the average respiratory rate of the DMSO-treated control wells. […]

[5] = Mildronate-induced fatty liver, liver triacylglycerol; type: in vivo; conditions: C57BL/6 mice; Mildronate 550 mg/kg body weight in low-fat diet; 3 weeks
Method: C57BL/6 mice were divided in 4 groups of 10 mice and fed a control low-fat diet, low-fat diets with TTA (720 mg/kg body weight), Mildronate (550 mg/kg body weight) or a combination of these two treatments for 3 weeks (n=10). At sacrifice, liver samples were collected, lipids were extracted, and triacylglycerol (TAG) measured on the Hitachi 917 system (Roche Diagnostics, GmbH, Mannheim, Germany) using a kit from Roche Diagnostics.

[6] = inside SH-SY5Y cells after 24 hours

With CCCCCCCC=CCCCCCSCC(=O)O [TTA: 1n-8] the “Medium 24 h, weight percent of total FA” value (SH-SY5Y cells; cell medium after 24 hours) was “(0.18%)”, the “Medium 24 h, concentration” value (SH-SY5Y cells; cell medium after 24 hours incubation with SH-SY5Y cells) was 0.53 µM and the “Cells 24 h, concentration” value (SH-SY5Y cells; [6]) was 0.017 µM. The “Cells 24 h, weight percent of total FA” value (SH-SY5Y cells; [6]) was “(0.19%)”.
In the case of NC(=O)c1ncn([C@@H]2O[C@H](CO)[C@@H](O)[C@H]2O)c1N [AICAR, 5-aminoimidazole-4-carboxamide-1-β-D-ribofuranoside, reference compound], the “basal respiratory rate (OCR)” value (HCC827 cells) is reported as “little or no effect”, the “GFP intensity (NRF1 reporter)” value [1] is reported as “significant increase” and the PGC1α expression [2] is reported as “reduced PGC1α expression”. The resazurin conversion [3] was “moderate reduction”, the basal respiratory rate [4] was “without affecting the basal respiratory rate” and the “uncoupled respiratory capacity (CCCP)” value [4] was “only increased in the AICAR-treated cells”.
With C[N+](C)(C)NCCC(=O)[O-] [Mildronate, 3-(2,2,2-trimethylhydrazinium)propionate] the “increase in liver triacylglycerol (TAG)” value [5] was 7 fold.
